Reference: patent US7341983B2, “Antimicrobial compositions including carboxylic acids and alkoxylated amines” (Ecolab Inc., priority 2003, dated 2008)

Test: Solution appearance with various types and amounts of alkoxylated amines
Assay type: physicochemical
Settings: 2.4 wt-% octanoic acid, 21 wt-% phosphoric acid (75%), 8.0 wt-% citric acid, remainder water
Excerpt: Test compositions were made with varying amounts and types of alkoxylated amines. These were made to include 2.4 wt-% octanoic acid, 21 wt-% phosphoric acid (75%), 8.0 wt-% citric acid, varying amounts of alkoxylated amine, with the remainder water.

For “iso-(2-hydroxyethyl) isodecyloxypropylamine [Alkoxylated Amine 6]”, which Solution appearance (2.5 wt-% alkoxylated amine) is on record?
Its Solution appearance is “hazy yellow”.

And the Solution appearance (3 wt-% alkoxylated amine)?
The Solution appearance was “hazy yellow”.

What about the Solution appearance (3.5 wt-% alkoxylated amine) of the same substance?
The Solution appearance was “hazy”.

And the Solution appearance (4 wt-% alkoxylated amine)?
The Solution appearance was “milky yellow”.

What about the Solution appearance (4.5 wt-% alkoxylated amine) of the same substance?
The Solution appearance was “opaque-yellow”.

What about the Solution appearance (5 wt-% alkoxylated amine) of the same substance?
Its Solution appearance is “separated”.
